The numbers were not newly measured in patent US20170216178A1, “Cosmetic or Dermatological Composition Containing Retinaldehyde and DNA” (GALEPHAR PHARMACEUTICAL RESEARCH, INC., priority 2016, published 2017), which cites them from elsewhere.

The structures appear in SMILES notation.

One data set concerns P. acnes. The following applies: against P. acnes.
The test system of a further data set is comedones. The note with it: topical; compared with retinoic acid (tretinoin); rhino mouse model.
A further data set deals with skin. The note with it: topical; compared with retinoids.
The test system of the next data set is skin cancer. The note with it: mice.

For the compound `O=C(O)CCCCCCCC(=O)O` [azelaic acid], the intra-follicular antibacterial activity entry with P. acnes is recorded as “showed an intra-follicular antibacterial activity”. Turning to `CC1=C(/C=C/C(C)=C/C=C/C(C)=C/C=O)C(C)(C)CCC1` [retinaldehyde], the comedolytic action entry with comedones is given as “identical to that of retinoic acid”. Besides, in the data set on skin, the skin tolerance result is “significantly higher skin tolerance”.

In the case of `O=C(OOC(=O)c1ccccc1)c1ccccc1` [benzoyl peroxide], the “potential for the development of skin cancer” value in the data set on skin cancer is “may increase the potential for the development of skin cancer”.
